Substitutions are numbered along the chain they refer to.

The term Emax denotes the greatest response seen or fitted, relative to the assay's reference. In general, EC50 refers to the concentration needed to bring the measured effect to its halfway point.

The target of one assay is T1, GAL2R mutants (Homo sapiens, UniProt O43603, L255A).
T1 construct: expressed in transfected cells; host or cells: HEK293
T1 sequence (O43603 1-387 L255A): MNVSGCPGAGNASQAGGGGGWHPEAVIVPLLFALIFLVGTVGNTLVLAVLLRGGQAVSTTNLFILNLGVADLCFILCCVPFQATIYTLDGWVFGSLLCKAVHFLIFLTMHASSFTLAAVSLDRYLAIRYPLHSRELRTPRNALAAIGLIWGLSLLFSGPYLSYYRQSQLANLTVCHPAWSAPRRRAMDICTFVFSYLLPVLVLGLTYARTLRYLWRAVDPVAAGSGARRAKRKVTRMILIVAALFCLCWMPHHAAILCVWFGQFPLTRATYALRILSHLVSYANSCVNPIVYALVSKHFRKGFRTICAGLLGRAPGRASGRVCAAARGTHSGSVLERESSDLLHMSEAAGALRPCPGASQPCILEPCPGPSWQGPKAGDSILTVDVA
Put plainly: Calcium assay, HEK293/Gα16 cells, GAL2R mutants. The assay is classed as cell-based. As to conditions: GAL2R L2556.54A.

For a further assay, the target named is T2, GAL2R (Homo sapiens, UniProt O43603).
T2 construct: expressed in transfected cells; host or cells: HEK293/Gα16
T2 sequence (O43603 1-387): T1 sequence (O43603 1-387 L255A) with A255L
Description: Calcium assay, HEK293/Gα16 cells, WT GAL2R. The assay is classed as cell-based.

[1] abbreviates: response of 100 μM spexin compared to WT, mean ± S.E.M.

Regarding spexin, the maximal effect (Emax) at GAL2R mutants (setting [1]) is reported as 26.65±5.9%; on GAL2R mutants (spexin, replicate 1) it was 16.7892%; at GAL2R mutants (spexin, replicate 2), 26.0726%; at GAL2R mutants (spexin, replicate 3) it was 37.0775%; on GAL2R (setting [1]), 100±4.9%; at GAL2R (spexin, replicate 1) it was 101.879%. Besides, the maximum response (Emax) at GAL2R (spexin, replicate 2) was determined as 107.462%; at GAL2R (spexin, replicate 3), 90.6585%. In addition, the EC50 at GAL2R mutants (spexin, replicate 2) amounted to 0.2454 µM; on GAL2R mutants (spexin, replicate 3) it was 0.8451 µM; on GAL2R (spexin, replicate 1) it was 0.3268 µM; at GAL2R (spexin, replicate 2), 0.1775 µM; on GAL2R (spexin, replicate 3) it was 0.08138 µM.

The values are drawn from paper PMC8924211 (Nature Communications, 2022).
